# Experimental data published in patent publication US20050215531A1, “Use of edg receptor binding agents in cancer” (priority 2002, published 2005).
# Structures can show the parent of a compound that is named as a salt.
# How the values were obtained:
# HUVEC [1] = test: In vitro angiogenesis (tube formation) assay on Matrigel; type: cell-based, human; settings: for effect on VEGF-triggered tube formation: high concentrations, 2-5 μM
# Procedure: (§1) Human umbilical vein endothelial cells (HUVEC) are cultured at 37° C. and 5% CO2 in medium M199 supplemented with 20% SCS (HyClone, Logan, Utah), 1 U/ml heparin, 50 μg/ml ECGS, 2 mM glutamine, 100 U/ml penicillin and 0.1 mg/ml streptomycin. Cells are used for experiments up to passage number 5. Short-starved HUVEC are obtained by starving with 1% SCS-containing M199 for 5 h. Recombinant human VEGF165 is obtained from PromoCell (Heidelberg, Germany). Phospho-specific ERK½, p3B kinase polyclonal antibodies, nonphospho ERK½ antibodies and LumiGLO chemiluminescent reagent are from New England BioLabs (Beverly, Mass.), polyclonal IKB antibodies from Santa Cruz Biotechnology (Santa Cruz, Calif.). Peroxidase-conjugated donkey anti-rabbit immunoglobulin G (IgG) and sheep anti-mouse IgG are purchased from Amersham LIFE SCIENCE (Amersham Place, England). lmmobilon-P transfer membranes are products of Millipore (Bedford, Mass.). S is obtained from Sigma Chemical Co.; S1P is from Biomol. Compound A-phosphate stock solution is prepared by the following protocol. Compound A-phosphate is dissolved in methanol tracing with concentrated HCl (0.5 mg Compound A-phosphate in 500 μl of methanol plus 2 μl of HCl). Solvent from the resulting solution is evaporated under vacuum and the residue obtained is redissolved (variant 1) in 0.1% of defatted BSA solution in sterile deionized water (500 μl) or (variant 2) in 0.5% Triton X-100 in deionized water. The resulting stock solutions (2.5 mM) are sonicated and stored at 4° C.
# Morphogenesis of endothelial cells into capillary-like structures on Growth Factor Reduced Matrigel Matrix (BD Bioscience) is performed according to the manufacture procedure. Briefly, HUVEC are trypsinized, resuspended in serum-free Ml 99 medium containing soybean trypsin inhibitor (1 mg/ml, Sigma). After centrifugation cells are resuspended in serum-free medium at a density 0.5×10^5 cells/ml, and cell suspension is seeded in 96-well cell culture plates (Costar, Corning Incorporated) precoated with 50 μl of Matrigel in the absence or presence of various stimuli: VEGF at 1.5 nM, S1P at 0.1-2 μM, S at 0.5-2 μM, Compound A at 0.5-2 μM, and Compound A-phosphate at 0.1-2 μM. Eight hours later, cells on Matrigel are fixed with 3% formaldehyde in PBS and kept at 4° C. Results are quantitated from images made with a Nikon Diaphot microscope equipped with a cooled CCD camera (Kappa GmbH, Gleichen, Germany) by direct counting of branching points on two microscopic fields from each well done in duplicates.
# The effect of Compound A and Compound A-phosphate on morphogenic differentiation of endothelial cells is determined using an in vitro angiogenesis assay on Matrigel. Endothelial cell morphogenesis is a complex process that requires cell-extracellular matrix interactions, followed by matrix remodelling, stimulated migration, cell-cell interactions, and perivascular proteolysis. […] This may be interpreted as a possible involvement of EDG-1 (S1P1) receptor-mediated signaling events in Compound A-phosphate-stimulated bioresponses (see e.g. FIG. 3). […] Importantly, high concentrations of S and Compound A (2-5 μM) inhibited VEGF-triggered tube formation.
# tissue factor = test: Clotting assay, tissue factor activity on HUVEC; type: cell-based, human; settings: compound alone or in combinations, 0.5-2 μM, 4 hours
# Procedure: as §1
# Cells are seeded in 6-well plates at 80-90% confluency and grown overnight. Cells are scraped from the plates and analyzed for tissue factor activity according to the method as described in Clauss, M., J. Biol. Chem. 271,17629-17634 (1996), Mechtcheriakova, D., Blood 93,3811-3823 (1999). Briefly, after induction for 4 hours with VEGF (1.5 nM), TNF-α (100 U/ml), S (0.5-2 μM), S1P (0.5-2 μM), Compound A (0.5-2 μM), and Compound A-phosphate (0.5-2 μM), cells are washed twice and then scraped in 1 ml clotting buffer (12 mM sodium acetate, 7 mM diethylbarbitate and 130 mM sodium chloride; pH 7.4). 50 μl of resuspended cells are mixed with 50 μl of citrated plasma, and clotting times are determined after recalcfication with 50 μl of 20 mM CaCl2 solution at 37° C. TF-equivalents are determined by using a standard curve obtained from rabbit brain thromboplastin.
# An important characteristic feature of both classical inflammatory stimulus TNF-α and the main angiogenic growth factor VEGF on endothellal cells is their potency to upregulate tissue factor. Compound A, Compound A-phosphate, S or S1P are tested whether they also do induce tissue factor on HUVEC. […] The data obtained together indicate that Compound A, Compound A-phosphate, S and S1P mechanistically work distinctly to anglogenic VEGF and inflammatory TNF-α.
# ERK½ MAP kinases = test: Western blot, activation of ERK½ MAP kinases in HUVEC; type: cell-based, human; settings: endothelial cells, 5 minute to 60 minute treatment
# Procedure: as §1
# After various treatments, the cells are washed twice with cold PBS, lysed in 100 μl of Laemmli buffer, scraped and heated for 5 min at 95° C. Total cell lysates are separated by SDS-PAGE and transferred to Immobilon-P membrane. The membrane is blocked for 30 minutes with PBS containing 0.1% Tween-20 and 3% skim milk and incubated for 1 hour at RT with a primary antibody diluted in blocking buffer. The membrane obtained is washed three times for 5 minutes with PBS containing 0.1% Tween-20 and incubated with peroxidase-conjugated secondary antibody for 1 hour at RT. After a washing step, the membrane is incubated for 1 minute with ECL reagent and exposed to film as required. For reprobing with another antibody, the membrane is washed twice in PBS, stripped for 30 min at 55° C. with stripping buffer (62.5 mM Tris-HCL, pH 6.8, 2% SDS, 100 mM 2-mercaptoethanol) and washed three times for 5 minutes with PBS at RT. The membrane is stored wet wrapped in SaranWrap at 4° C. after each immunodetection.
# Signal transduction via MAP idnases plays a key role in a variety of endothelial cell functions. Treatment of HUVEC with Compound A-phosphate at 0.5 μM may result in transient activation of ERK½ with a peak of phosphorylation/activation at 10 minutes and returning to baseline by 20 minutes (see e.g. FIG. 5). No activation of p38 kinase and JNK½ by Compound A-phosphate is detectable in HUVEC. […] To estimate the possible role of inflammatory/NFκB-dependent program in Compound A-phosphatestimulated bioresponses of endothelial cells, the membranes are reprobed with anti-IκB antibodies. IκB levels are not affected by Compound A-phosphate treatment.
# HUVEC [2] = test: S1P-mediated HUVEC tube formation assay; type: cell-based, human; settings: treatment alone; branching points in 3 independent fields at 4× magnification
# Procedure: For the tube formation assay, HUVEC from passage 2-8 are used and are never greater than 70% confluent before harvesting. Cells are prepared for the assay by washing with Herpes Balanced Saline Solution (HBSS from Clonetics) and then trypsinizing with Trypsin/EDTA (0.25 mg/ml, from Clonetics). After approximately 90% of the cells have lifted off the plate, an equal volume of Trypsin Neutralizing Solution (TNS from Clonetics) is added and the cells are collected into a conical tube containing at least 10 ml of EBM-2 (Clonetics)+0.1% BSA (Sigma) media Cells are centrifuged at 1000 rpm for 5 minutes and the supematant is removed and replaced with 5 ml of fresh EBM-2+0.1% BSA. Cells are counted using a hemacytometer and the volume of the cell suspension is adjusted to achieve a concentration of 500,000 cells/ml. Conical tubes are prepared with test compounds at 100 nM, and pertussin toxin (PTx) at 10 ng/ml in each, then 1 ml of the cell suspension is added to each tube. Tubes are then incubated for ½ hour at 37° C., 5% CO2. The migration assay is performed using Fluoro-Blok 24-Multiwell insert Plates coated with fibronectin (8 μm pore size, Falcon #351147) instead of the individual inserts in a 24-well plate. Cells and test compounds are prepared and pre-incubated as described above, then 100 μl is added to each approriate well in the Insert Plate. 300 μl of the EBM-2+2% charcoastripped media without S1P is added to the bottoms of the wells marked for no stimulation (−), and 300 μl of the media containing S1P (500 nM) is added to the bottoms of the wells marked for stimulation (+). The plate is then incubated for 4 hours at 37° C., 5% CO2. […]
# After incubation, the plate is read on a Cytofluor II at an excitation of 485 nm and emission of 530 nm. The Fluoro-Blok coating in the inserts allows only the cells that have migrated to the bottom to be counted. […]
# Tube formation is quantitated by counting the number of branching points (two independent cords connecting) in 3 independent fields at 4× magnification.
# [3] = system: human A375 melanoma cells; test: In vivo antitumor activity, A375 melanoma transplanted into BALB/c-nu/nu mice
# From the text: (§2) Antitumor activity is expressed as T/C% (mean increase in tumor volumes of treated animals divided by the mean increase of tumor volumes of control animals multiplied by 100).
# Aliquots of cancer cells (1×10^7), e.g. human A375 melanoma cells, are transplanted into BALB/c-nu/nu mice. When the tumors have reached ca. 10×10 mm in size, the animals are assigned randomly to four subgroups and the treatment with a compound of formula I is initiated. Animals are sacrificed after 2 week treatment, at which times tumors and tissues are harvested and prepared for morphological and molecular analysis. The size of the tumors is determined with a caliper.
# [4] = system: human A375 melanoma cells; test: Combination with a VEGF-R protein tyrosin kinase inhibitor, A375 melanoma in nude mice; type: in vivo; settings: treated in a similar way (same doses) alone or combined
# [5] = system: human MDA-MB-435 breast tumors; test: Combination with a VEGF-R protein tyrosin kinase inhibitor, MDA-MB-435 breast tumors in nude mice; type: in vivo; settings: 2 weeks, Compound C HCl 2.5 mg/kg i.v. 5×/week, phthalazine succinate 100 mg/kg p.o. 5×/week, or both
# Procedure: as §2
# Nude mice transplanted with human MDA-MB-435 breast tumors are treated for 2 weeks with a VEGF-R protein tyrosin kinase inhibitor, e.g. 1-(4-chloroanilino)-4-(4-pyridylmethyl)phthalazine succinate, at a dose of 100 mg/kg p.o. 5×/week, a S1P receptor agonist, e.g. Compound C (hydrochloride salt), at a dose of 2.5 mg/kg i.v. 5×/week, or a combination of both. Antitumor is expressed as T/C% as indicated above.
compound,measurement,setting,value
"CCCCCCCCCCCCC/C=C/[C@@H](O)[C@@H](N)CO [S, sphingosine, reference compound]",effect on the VEGF-induced tube formation,HUVEC [1]; 1 μM,without having an inhibitory effect
same,effect on the ability of S1P and Compound A-phosphate to induce capillary-like structures,HUVEC [1]; 1 μM,attenuates
same,potency to induce capillary-like structures,"HUVEC [1]; 1 μM, compared with S1P",less potent than S1P
same,effect on VEGF-triggered tube formation,HUVEC [1],inhibited
same,effect on VEGF-triggered tube formation,HUVEC [1]; listed as sphingosine,inhibits
same,tissue factor activity,tissue factor,none of these compounds alone or in combinations may elevate tissue factor activity
same,MAP kinase activation,ERK½ MAP kinases,Neither Compound A nor S are able to induce MAP kinase activation
"CCCCCCCCCCCCC/C=C/[C@@H](O)[C@@H](N)COP(=O)(O)O [Compound S1P, sphingosine-1-phosphate, reference compound]",tissue factor activity,tissue factor,none of these compounds alone or in combinations may elevate tissue factor activity
same,Branching Points,HUVEC [2],42 ± 13
"CCCCCCCOc1ccc(CCC(C)(N)CO)cc1 (stereo not shown) [Compound C—HCl, 2-amino-4-(4heptyloxyphenyl)-2-methyl-butanol]",final T/C value,[3]; 2.5 mg/kg 5×/week,30%
same,T/C%,[4],35%
same,T/C%,[5],66%
pertussis toxin [reference compound],inhibition of Compound A-phosphate- and S1P-stimulated tube formation,HUVEC [1]; PTX 50 ng/ml,practically completely inhibited
"Clc1ccc(Nc2nnc(Cc3ccncc3)c3ccccc23)cc1.O=C(O)CCC(=O)O [1-(4-chloroanilino)-4-(4-pyridylmethyl)phthalazine succinate, reference compound]",T/C%,[4],44%
same,T/C%,[5],91%
"CCCCCCCOc1ccc(CCC(C)(N)CO)cc1 (stereo not shown) [Compound C, 2-amino-4-(4heptyloxyphenyl)-2-methyl-butanol]",tumor growth vs saline control,"[3]; hydrochloride salt form, 0.5 to 5 mg/kg, 2 week treatment",slows tumor growth
